Reference: ChEMBL document CHEMBL1146302, “Highly constrained bicyclic VLA-4 antagonists” (Bioorg Med Chem Lett, 2007)
Calls of active or inactive are those of the source. The rule behind the calls is not given here.

Assays:
[1] = molecular target: T1, Integrin alpha-4/beta-1 (Homo sapiens, UniProt P05556+P13612); assay: Binding affinity to human VLA4 alpha4beta1 in Jurkat cells; format: cell-based
[2] = molecular target: T1, Integrin alpha-4/beta-1; assay: Displacement of [125I]VCAM-Ig from human VLA4 alpha-4-beta-1 in Jurkat cells at 100 uM; format: cell-based
[3] = Bioavailability in Sprague-Dawley rat at 2 mg/kg, po by cassette-dosing assay; format: ADME, organism-based; details: in vivo
[4] = Clearance in Sprague-Dawley rat plasma at 1 mg/kg, iv by cassette-dosing assay; format: ADME, organism-based; parameters: dose 1 mg/kg, route intravenous
[5] = Half life in Sprague-Dawley rat plasma at 1 mg/kg, iv by cassette-dosing assay; format: ADME, organism-based; parameters: dose 1 mg/kg, route intravenous
[6] = molecular target: T2, Integrin alpha-4/beta-7 (Homo sapiens, UniProt P13612+P26010); assay: Binding affinity to human integrin alpha-4-beta-7 in Jurkat cells; format: cell-based
T2 sequence (P13612 whole entry): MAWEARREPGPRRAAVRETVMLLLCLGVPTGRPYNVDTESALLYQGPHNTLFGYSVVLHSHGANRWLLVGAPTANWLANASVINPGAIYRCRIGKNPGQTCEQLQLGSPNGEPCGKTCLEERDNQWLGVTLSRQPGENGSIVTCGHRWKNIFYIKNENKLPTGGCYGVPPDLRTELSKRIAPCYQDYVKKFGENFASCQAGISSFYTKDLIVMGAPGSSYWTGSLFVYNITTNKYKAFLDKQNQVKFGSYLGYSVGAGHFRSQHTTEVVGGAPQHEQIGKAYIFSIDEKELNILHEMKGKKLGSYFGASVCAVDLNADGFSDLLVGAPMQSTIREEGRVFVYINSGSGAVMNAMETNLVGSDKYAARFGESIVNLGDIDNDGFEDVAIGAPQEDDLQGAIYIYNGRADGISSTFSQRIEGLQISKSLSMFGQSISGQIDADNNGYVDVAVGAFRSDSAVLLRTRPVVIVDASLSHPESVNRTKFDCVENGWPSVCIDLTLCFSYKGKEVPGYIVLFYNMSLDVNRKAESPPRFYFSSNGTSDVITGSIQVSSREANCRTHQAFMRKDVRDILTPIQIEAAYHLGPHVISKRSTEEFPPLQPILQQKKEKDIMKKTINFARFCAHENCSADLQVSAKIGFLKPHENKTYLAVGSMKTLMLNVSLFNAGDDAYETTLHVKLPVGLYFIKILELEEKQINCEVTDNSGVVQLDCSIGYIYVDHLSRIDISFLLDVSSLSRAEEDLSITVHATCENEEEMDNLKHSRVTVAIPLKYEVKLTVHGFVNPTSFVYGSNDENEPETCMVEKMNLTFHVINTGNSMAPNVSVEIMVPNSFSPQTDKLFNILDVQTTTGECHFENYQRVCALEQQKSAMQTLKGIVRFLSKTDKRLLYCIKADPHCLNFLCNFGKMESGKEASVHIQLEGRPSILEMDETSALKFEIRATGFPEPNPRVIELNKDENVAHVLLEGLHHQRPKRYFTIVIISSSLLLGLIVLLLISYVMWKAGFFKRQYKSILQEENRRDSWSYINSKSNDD
T2 sequence (P26010 whole entry): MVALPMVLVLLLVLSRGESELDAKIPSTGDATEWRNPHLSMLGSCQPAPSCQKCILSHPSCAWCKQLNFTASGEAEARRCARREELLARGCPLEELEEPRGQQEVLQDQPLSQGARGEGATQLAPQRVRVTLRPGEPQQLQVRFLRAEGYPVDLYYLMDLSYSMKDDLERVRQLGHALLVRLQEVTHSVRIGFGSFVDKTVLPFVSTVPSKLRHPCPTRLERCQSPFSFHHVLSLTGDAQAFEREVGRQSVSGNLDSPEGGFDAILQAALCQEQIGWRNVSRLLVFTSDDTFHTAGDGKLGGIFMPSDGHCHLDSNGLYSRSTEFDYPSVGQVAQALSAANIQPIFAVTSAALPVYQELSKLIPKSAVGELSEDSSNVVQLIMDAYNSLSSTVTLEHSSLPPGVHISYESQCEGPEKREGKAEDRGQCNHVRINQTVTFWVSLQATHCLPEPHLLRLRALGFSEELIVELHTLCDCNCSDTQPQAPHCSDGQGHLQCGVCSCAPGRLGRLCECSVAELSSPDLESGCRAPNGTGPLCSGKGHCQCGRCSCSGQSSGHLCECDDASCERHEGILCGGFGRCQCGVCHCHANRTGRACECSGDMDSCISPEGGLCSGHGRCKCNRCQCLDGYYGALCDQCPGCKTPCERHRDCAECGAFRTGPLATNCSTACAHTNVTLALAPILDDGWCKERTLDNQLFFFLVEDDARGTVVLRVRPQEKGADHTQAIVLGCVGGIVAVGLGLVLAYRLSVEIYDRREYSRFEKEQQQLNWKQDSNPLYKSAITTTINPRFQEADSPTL

[7] = Half life in Sprague-Dawley rat plasma at 2 mg/kg, po by cassette-dosing assay; format: ADME, organism-based; parameters: dose 2 mg/kg, route oral

T1 sequence (P05556 whole entry, one chain of several): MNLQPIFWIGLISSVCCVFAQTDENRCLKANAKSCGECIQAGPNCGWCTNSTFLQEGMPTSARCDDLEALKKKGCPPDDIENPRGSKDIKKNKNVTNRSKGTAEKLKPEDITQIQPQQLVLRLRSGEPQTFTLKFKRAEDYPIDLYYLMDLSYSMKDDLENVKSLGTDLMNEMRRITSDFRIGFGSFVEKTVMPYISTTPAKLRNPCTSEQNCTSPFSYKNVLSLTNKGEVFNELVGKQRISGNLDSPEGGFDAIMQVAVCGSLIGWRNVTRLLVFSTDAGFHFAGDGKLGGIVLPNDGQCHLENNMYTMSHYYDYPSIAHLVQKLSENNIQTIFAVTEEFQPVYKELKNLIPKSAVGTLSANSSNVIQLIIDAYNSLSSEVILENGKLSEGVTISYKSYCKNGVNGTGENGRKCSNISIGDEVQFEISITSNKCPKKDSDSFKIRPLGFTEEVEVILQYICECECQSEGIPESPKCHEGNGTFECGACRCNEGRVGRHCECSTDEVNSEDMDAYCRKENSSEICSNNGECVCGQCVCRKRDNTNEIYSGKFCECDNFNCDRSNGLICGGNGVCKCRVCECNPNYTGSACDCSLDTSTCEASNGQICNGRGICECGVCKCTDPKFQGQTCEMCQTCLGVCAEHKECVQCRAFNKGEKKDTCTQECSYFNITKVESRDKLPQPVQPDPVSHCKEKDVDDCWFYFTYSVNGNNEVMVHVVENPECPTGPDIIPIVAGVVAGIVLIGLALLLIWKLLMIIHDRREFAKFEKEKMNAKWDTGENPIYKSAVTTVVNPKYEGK

Structure (SMILES)	IC50 [1]	other results
O=C(O)C1C2C=CC(C2)[C@@H]1NC(=O)[C@@H]1CCCN1S(=O)(=O)c1cc(Cl)cc(Cl)c1 (stereo partly drawn) [listing 1 of 2 here]	2160 nM	–
O=C(CN(C1CCCCC1)S(=O)(=O)c1cc(Cl)cc(Cl)c1)NC1CCCCC1C(=O)O (stereo not drawn)	–	Activity [2]: inactive
O=C(O)[C@H]1C2CCC(CC2)[C@@H]1NC(=O)[C@@H]1CCCN1S(=O)(=O)c1cc(Cl)cc(Cl)c1	2740 nM	–
O=C(O)C1C2CCC(C2)[C@H]1NC(=O)[C@@H]1CCCN1S(=O)(=O)c1cc(Cl)cc(Cl)c1 (stereo partly drawn) [listing 1 of 2 here]	299 nM	–
O=C(O)C1C2CCC(C2)[C@@H]1NC(=O)[C@@H]1CCCN1S(=O)(=O)c1cc(Cl)cc(Cl)c1 (stereo partly drawn) [listing 1 of 2 here]	95 nM	–
O=C(O)C1C2CCC(C2)[C@H]1NC(=O)[C@@H]1CCCN1S(=O)(=O)c1cc(Cl)cc(Cl)c1 (stereo partly drawn) [listing 2 of 2 here]	1490 nM	–
O=C(O)Cc1ccccc1NC(=O)[C@@H]1CCCN1S(=O)(=O)c1cc(Cl)cc(Cl)c1	–	Activity [2]: 11%
O=C(O)[C@H]1CCCC[C@@H]1NC(=O)[C@@H]1CCCN1S(=O)(=O)c1cc(Cl)cc(Cl)c1	525 nM	–
O=C(O)Cc1cccc(NC(=O)[C@@H]2CCCN2S(=O)(=O)c2cc(Cl)cc(Cl)c2)c1	–	Activity [2]: 43%
O=C(O)[C@H]1C2CCC(O2)[C@@H]1NC(=O)[C@@H]1CCCN1S(=O)(=O)c1cc(Cl)cc(Cl)c1 (stereo partly drawn)	25600 nM	–
O=C(O)[C@H]1C2CCC(C2)[C@@H]1NC(=O)[C@@H]1CCCN1S(=O)(=O)c1cc(Cl)cc(Cl)c1 (stereo partly drawn)	54 nM	bioavailability [3]: 49%; clearance [4]: 3.3 mL/min/kg; half-life [5]: 114 min; IC50 [6]: 13 µM; half-life [7]: 102 min
O=C(O)c1ccccc1NC(=O)[C@@H]1CCCN1S(=O)(=O)c1cc(Cl)cc(Cl)c1	–	Activity [2]: 0%
O=C(O)[C@@H]1C2CCC(C2)[C@@H]1NC(=O)[C@@H]1CCCN1S(=O)(=O)c1cc(Cl)cc(Cl)c1 (stereo partly drawn)	1600 nM	–
CC(C)[C@@H](C(=O)NC1CCCCC1C(=O)O)N(C)S(=O)(=O)c1cc(Cl)cc(Cl)c1 (stereo partly drawn)	462 nM	–
O=C(O)C1C2CCC(C2)[C@@H]1NC(=O)[C@@H]1CCCN1S(=O)(=O)c1cc(Cl)cc(Cl)c1 (stereo partly drawn) [listing 2 of 2 here]	322 nM	–
O=C(O)c1cccc(NC(=O)[C@@H]2CCCN2S(=O)(=O)c2cc(Cl)cc(Cl)c2)c1	–	Activity [2]: 2%
O=C(O)C1C2C=CC(C2)[C@@H]1NC(=O)[C@@H]1CCCN1S(=O)(=O)c1cc(Cl)cc(Cl)c1 (stereo partly drawn) [listing 2 of 2 here]	657 nM	–
O=C(O)[C@H]1CCCC[C@H]1NC(=O)[C@@H]1CCCN1S(=O)(=O)c1cc(Cl)cc(Cl)c1	9460 nM	–
